Measured values from article PMC11591947, “Peroxidase-like Nanoparticles of Noble Metals Stimulate Increasing Sensitivity of Flavocytochrome b2-Based L-Lactate Biosensors” (Biosensors, 2024).

Molecular target: T1, Flavocytochrome b2 (Fcb2, EC 1.1.2.3) (Ogataea polymorpha, UniProt A0A9P8PNE1)
T1 construct: gene OGATHE_001663
Assay: chronoamperometry on Fcb2/graphite electrode biosensor
Type: biochemical
Settings: immobilised enzyme (0.3 units, Nafion film, no nanoparticles); 1 mM PMS; +200 mV vs Ag/AgCl; apparent value of bioelectrode

T1 sequence (A0A9P8PNE1 55-553): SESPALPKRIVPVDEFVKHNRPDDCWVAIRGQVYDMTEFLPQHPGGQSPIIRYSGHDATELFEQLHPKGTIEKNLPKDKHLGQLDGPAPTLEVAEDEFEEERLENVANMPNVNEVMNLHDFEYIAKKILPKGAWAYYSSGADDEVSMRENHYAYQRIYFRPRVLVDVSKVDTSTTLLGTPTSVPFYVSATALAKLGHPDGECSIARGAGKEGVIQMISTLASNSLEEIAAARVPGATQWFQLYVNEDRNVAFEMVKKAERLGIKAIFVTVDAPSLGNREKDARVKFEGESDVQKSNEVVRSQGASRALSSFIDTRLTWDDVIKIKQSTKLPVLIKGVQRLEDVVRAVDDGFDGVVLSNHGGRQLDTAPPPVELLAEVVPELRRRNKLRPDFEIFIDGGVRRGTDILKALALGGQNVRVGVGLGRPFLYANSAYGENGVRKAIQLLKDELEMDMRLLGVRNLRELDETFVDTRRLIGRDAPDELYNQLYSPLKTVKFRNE

SMILES: C[C@H](O)C(=O)O [L-lactate]
- KM^app: Calibration curves illustrating the current dependence on the L-lactate concentration for the ABS
